Results published in the supplement of paper PMC10307832.

What was measured:
Assay in all cases: relative viability (nuclei count vs DMSO), 5 days (fraction); higher = more cells survive
[1] = tested on: 201T
Summary of the method: (§1)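 One day after seeding in 1536-well plates, lung cancer cell lines were dosed by pin tool. Dosing was either single-drug or a fixed anchor-drug dose plus five library-drug doses (not always all listed) in √10 steps. After 5 days, nuclei were stained in one fix-and-stain step and counted on 4× images, and relative viability is the nuclei count of treated wells over that of vehicle wells, given as the median of duplicate plates.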

[2] = tested on: ABC-1
Summary of the method: as §1

[3] = tested on: CAL-12T
Summary of the method: as §1

[4] = tested on: ChaGo-K-1
Summary of the method: as §1

[5] = tested on: EMC-BAC-2
Summary of the method: as §1

[6] = tested on: H3255
Summary of the method: as §1

[7] = tested on: HOP-62
Summary of the method: as §1

[8] = tested on: LXF-289
Summary of the method: as §1

[9] = tested on: NCI-H1651
Summary of the method: as §1

[10] = tested on: NCI-H1734
Summary of the method: as §1

[11] = tested on: NCI-H1755
Summary of the method: as §1

[12] = tested on: NCI-H2009
Summary of the method: as §1

[13] = tested on: NCI-H2087
Summary of the method: as §1

[14] = tested on: NCI-H2126
Summary of the method: as §1

[15] = tested on: NCI-H3122
Summary of the method: as §1

[16] = tested on: NCI-H322M
Summary of the method: as §1

[17] = tested on: NCI-H441
Summary of the method: as §1

[18] = tested on: NCI-H596
Summary of the method: as §1

[19] = tested on: NCI-H647
Summary of the method: as §1

[20] = tested on: PC-14
Summary of the method: as §1

## O=C(O)CCCCC(CCSCc1ccccc1)SCc1ccccc1 (stereo not given) [CPI-613] + CC(C)C[C@H](NC(=O)[C@H](Cc1ccccc1)NC(=O)c1cnccn1)B(O)O [Bortezomib] (partner 0.002 µM)
[1]; first compound 5 µM
  relative viability: 1.08
[1]; first compound 15.81 µM
  relative viability: 1.03
[1]; first compound 50 µM
  relative viability: 1.09
[1]; first compound 158.11 µM
  relative viability: 0.995
[1]; first compound 500 µM
  relative viability: 0.949
[2]; first compound 5 µM
  relative viability: 0.305
[2]; first compound 15.81 µM
  relative viability: 0.298
[2]; first compound 50 µM
  relative viability: 0.302
[2]; first compound 158.11 µM
  relative viability: 0.232
[2]; first compound 500 µM
  relative viability: 0.242
[3]; first compound 5 µM
  relative viability: 0.866
[3]; first compound 15.81 µM
  relative viability: 0.774
[3]; first compound 50 µM
  relative viability: 0.758
[3]; first compound 158.11 µM
  relative viability: 0.498
[3]; first compound 500 µM
  relative viability: 0.277
[4]; first compound 5 µM
  relative viability: 0.836
[4]; first compound 15.81 µM
  relative viability: 0.855
[4]; first compound 50 µM
  relative viability: 0.804
[4]; first compound 158.11 µM
  relative viability: 0.671
[4]; first compound 500 µM
  relative viability: 0.554
[5]; first compound 5 µM
  relative viability: 1.06
[5]; first compound 15.81 µM
  relative viability: 0.993
[5]; first compound 50 µM
  relative viability: 1.07
[5]; first compound 158.11 µM
  relative viability: 0.936
[5]; first compound 500 µM
  relative viability: 0.4
[6]; first compound 5 µM
  relative viability: 0.815
[6]; first compound 15.81 µM
  relative viability: 0.719
[6]; first compound 50 µM
  relative viability: 0.781
[6]; first compound 158.11 µM
  relative viability: 0.734
[6]; first compound 500 µM
  relative viability: 0.736
[7]; first compound 5 µM
  relative viability: 0.511
[7]; first compound 15.81 µM
  relative viability: 0.545
[7]; first compound 50 µM
  relative viability: 1.26
[7]; first compound 158.11 µM
  relative viability: 0.464
[7]; first compound 500 µM
  relative viability: 0.0422
[8]; first compound 5 µM
  relative viability: 0.981
[8]; first compound 15.81 µM
  relative viability: 1.03
[8]; first compound 50 µM
  relative viability: 0.94
[8]; first compound 158.11 µM
  relative viability: 0.554
[8]; first compound 500 µM
  relative viability: 0.069
[9]; first compound 5 µM
  relative viability: 0.91
[9]; first compound 15.81 µM
  relative viability: 0.9
[9]; first compound 50 µM
  relative viability: 0.866
[9]; first compound 158.11 µM
  relative viability: 0.914
[9]; first compound 500 µM
  relative viability: 1
[10]; first compound 5 µM
  relative viability: 0.858
[10]; first compound 15.81 µM
  relative viability: 0.846
[10]; first compound 50 µM
  relative viability: 0.877
[10]; first compound 158.11 µM
  relative viability: 0.278
[10]; first compound 500 µM
  relative viability: 0.101
[11]; first compound 5 µM
  relative viability: 0.959
[11]; first compound 15.81 µM
  relative viability: 0.945
[11]; first compound 50 µM
  relative viability: 0.875
[11]; first compound 158.11 µM
  relative viability: 0.707
[11]; first compound 500 µM
  relative viability: 0.114
[12]; first compound 5 µM
  relative viability: 1.07
[12]; first compound 15.81 µM
  relative viability: 0.942
[12]; first compound 50 µM
  relative viability: 0.884
[12]; first compound 158.11 µM
  relative viability: 0.0722
[12]; first compound 500 µM
  relative viability: 0.0082
[13]; first compound 5 µM
  relative viability: 0.838
[13]; first compound 15.81 µM
  relative viability: 0.725
[13]; first compound 50 µM
  relative viability: 0.827
[13]; first compound 158.11 µM
  relative viability: 0.33
[13]; first compound 500 µM
  relative viability: 0.016
[14]; first compound 5 µM
  relative viability: 1.11
[14]; first compound 15.81 µM
  relative viability: 1.06
[14]; first compound 50 µM
  relative viability: 1.04
[14]; first compound 158.11 µM
  relative viability: 0.669
[14]; first compound 500 µM
  relative viability: 0.761
[15]; first compound 5 µM
  relative viability: 0.973
[15]; first compound 15.81 µM
  relative viability: 1.04
[15]; first compound 50 µM
  relative viability: 1.01
[15]; first compound 158.11 µM
  relative viability: 0.939
[15]; first compound 500 µM
  relative viability: 0.281
[16]; first compound 5 µM
  relative viability: 1.19
[16]; first compound 15.81 µM
  relative viability: 1.2
[16]; first compound 50 µM
  relative viability: 1.27
[16]; first compound 158.11 µM
  relative viability: 1.31
[16]; first compound 500 µM
  relative viability: 0.908
[17]; first compound 5 µM
  relative viability: 0.447
[17]; first compound 15.81 µM
  relative viability: 0.44
[17]; first compound 50 µM
  relative viability: 0.537
[17]; first compound 158.11 µM
  relative viability: 0.129
[17]; first compound 500 µM
  relative viability: 0.005
[18]; first compound 5 µM
  relative viability: 0.972
[18]; first compound 15.81 µM
  relative viability: 0.934
[18]; first compound 50 µM
  relative viability: 1
[18]; first compound 158.11 µM
  relative viability: 0.779
[18]; first compound 500 µM
  relative viability: 0.208
[19]; first compound 5 µM
  relative viability: 0.861
[19]; first compound 15.81 µM
  relative viability: 0.8
[19]; first compound 50 µM
  relative viability: 0.962
[19]; first compound 158.11 µM
  relative viability: 0.0678
[19]; first compound 500 µM
  relative viability: 0.0092
[20]; first compound 5 µM
  relative viability: 0.989
[20]; first compound 15.81 µM
  relative viability: 0.855
[20]; first compound 50 µM
  relative viability: 0.839
[20]; first compound 158.11 µM
  relative viability: 0.893
[20]; first compound 500 µM
  relative viability: 0.339
